Reference: patent US20170165259A1, “COMBINED MODULATION OF IRE1” (THE REGENTS OF THE UNIVERSITY OF CALIFORNIA, priority 2014, published 2017)

Legend:
[1] = system: IRE1α mutants that lack kinase activity; conditions: cited from earlier work
endogenous IRE1α [2] = assay: IRE1α auto-phosphorylation immunoblot in INS-1 cells under ER stress; type: cell-based, rat
Protocol: (§1) FIGS. 5A-5E. […] (FIG. 5C) EtBr-stained agarose gel of XBP1 complementary DNA (cDNA) amplicons from the INS-1 cells described in (B).
(§2) To further explore how IRE1α modulators affect the kinase and RNase activities of endogenous IRE1α under ER stress, in vivo studies using INS-1 rat insulinoma cell lines, which are derived from insulin-producing pancreatic β-cell tumors and contain large well-developed ERs, were conducted.
For protein analysis, cells were lysed in M-PER buffer (Thermo Scientific) plus complete EDTA-free protease inhibitor (Roche) and phosphatase inhibitor cocktail (Sigma). The concentration of samples was determined using BCA Protein Assay (Thermo). […] Gels were run using MES buffer and transferred onto nitrocellulose transfer membrane using an XCell II™ Blot Module. Blocking, antibody incubation, and washing were done in PBS or TBS with 0.05% Tween-20 (v/v) and 5% (w/v) non-fat dry milk or BSA, or blocking buffer (Licor-Odyssey). Antibodies used were: mouse anti-Actin (Sigma-Aldrich); rabbit anti-cleaved Caspase-2 (Abcam); mouse anti-GAPDH, anti-c-Myc, anti-rabbit, anti-proinsulin, and anti-IRE1α (Santa Cruz Biotechnology); anti-phospho-IRE1α and anti-full length Caspase-2 (Novus Biologicals); and rabbit anti-Caspase-3, anti-JNK, anti-eIF2a, anti-phospho-eIF2a, and mouse anti-phospho-JNK (Cell Signaling). Antibody binding was detected by using near-infrared-dye-conjugated secondary antibodies (Licor) on the LI-COR Odyssey scanner or visualized by capturing on a CL-XPosure film using ECL SuperSignal West Dura Extended Duration Substrate (both from Thermo Scientific).

endogenous IRE1α [3] = assay: XBP1 mRNA splicing in INS-1 cells under ER stress; type: cell-based, rat
Protocol: as §1, §2

[4] = system: panel of kinases (Src, Abl); assay: Counter-screen against a panel of kinases; type: biochemical; conditions: 12 kinases in this panel
IRE1α* [5] = target: T1, IRE1α* (Homo sapiens, UniProt O75460); assay: XBP1 RNA minisubstrate (FRET-quenched) RNase assay; type: biochemical; conditions: for IRE1α* RNase activity (XBP1 RNA cleavage), effect in words: in vitro
T1 construct: human IRE1α (residues 469-977, IRE1α*); made in house; host or cells: SF9 insect cells, Bac-to-Bac baculovirus
T1 sequence (O75460 469-977): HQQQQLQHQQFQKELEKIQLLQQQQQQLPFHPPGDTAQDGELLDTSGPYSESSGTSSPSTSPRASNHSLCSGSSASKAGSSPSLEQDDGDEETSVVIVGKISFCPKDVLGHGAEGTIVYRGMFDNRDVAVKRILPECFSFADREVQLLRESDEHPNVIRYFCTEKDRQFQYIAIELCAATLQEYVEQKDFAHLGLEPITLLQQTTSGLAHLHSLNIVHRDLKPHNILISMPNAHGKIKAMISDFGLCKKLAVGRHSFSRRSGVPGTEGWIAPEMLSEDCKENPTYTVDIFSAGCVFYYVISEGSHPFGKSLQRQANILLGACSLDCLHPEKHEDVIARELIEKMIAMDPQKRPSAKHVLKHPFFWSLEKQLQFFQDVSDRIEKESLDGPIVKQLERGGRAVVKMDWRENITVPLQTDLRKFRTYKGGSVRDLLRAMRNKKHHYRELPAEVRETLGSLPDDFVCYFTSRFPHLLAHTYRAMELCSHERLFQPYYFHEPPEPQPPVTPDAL

[6] = Compound toxicity / proliferative blocks in cells; type: cell-based
IRE1α* [7] = target: T1, IRE1α*; assay: ICAT cysteine footprinting (alkylation rates); type: binding; conditions: inhibitor 20 μM
From the text: FIGS. 3A-3D. Characterization of GP146's interaction with the ATP-binding site of IRE1α. (FIG. 3A) A crystal structure of the kinase domain of human IRE1α bound to ADP; the native cysteine residues that were monitored using the ICAT footprinting method are labeled and shown as thick rods and the DFG-motif is shown as thin bars; cys715 is part of the hinge region of IRE1α and its side chain partially occupies the ATP-binding site; cys645 is in the activation loop, two residues away from the DFG-motif; cys572 is located on the top of the N-terminal lobe of the catalytic domain and is distant from the ATP-binding site.
As Cys645 and Cys715 are located within the ATP-binding cleft of IRE1α, the accessibility of these residues would be expected to be affected by ligands that occupy this site, while Cys572 is a solvent-exposed residue located on the top of the N-terminal lobe of the kinase.

IRE1α* [8] = target: T1, IRE1α*; assay: DSS crosslinking, oligomer/monomer ratio of IRE1α*; type: biochemical; conditions: saturating inhibitor, DSS crosslinker
IRE1α* [9] = target: T1, IRE1α*; assay: IRE1α* autophosphorylation kinase assay in vitro; type: biochemical
IRE1α* (P830L) = target: T2, IRE1α* (P830L) (Homo sapiens, UniProt O75460, P830L); assay: IRE1α* (P830L) cancer mutant: kinase, RNase, oligomeric state in vitro; type: biochemical
T2 construct: human IRE1α (residues 469-977, IRE1α*) or equivalent IRE1α mutants; made in house; host or cells: SF9 insect cells, Bac-to-Bac baculovirus
T2 sequence (O75460 469-977 P830L): as the sequence (O75460 469-977) above, with P362L counted along it
From the text: Compared to IRE1α* (WT), IRE1α* (P830L) has reduced kinase activity, as the full-length protein does in vivo. […] IRE1α* (P830L) cannot cleave a FRET-quenched XBP1 RNA mini-substrate (Han et al., 2009), consistent with reduced RNase activity in vivo.
A construct containing the cytosolic kinase and RNase domains of human IRE1α (residues 469-977, IRE1α*) or equivalent IRE1α mutants was expressed in SF9 insect cells using the Bac-to-Bac baculovirus expression system (Invitrogen) as described (Wang et al., 2012). […] (NEB)-treated dephosphorylated IRE1α* (dP-IRE1α*) was also prepared and all the crosslinking experiments were performed as described (Wang et al., 2012). The RNase assay using 5′FAM-3′BHQ-labeled XBP1 single stem-loop minisubstrate (5′FAM-[…]-3′BHQ, from Dharmacon) (SEQ ID NO:22), and the IRE1α*auto-phosphorylation kinase assay were both done as described (Wang et al., 2012). The ability of KIRA6 to inhibit the catalytic activity of Erk2, JNK2, JNK3, PKA, and Piml was determined using previously reported assay conditions (Hill et al., 2012). Internally ^32P-labelled RNAs (mouse XBP1 RNA and Ins2 RNA, as described in (Han et al., 2009), and rat rhodopsin mRNA) were also used as substrates. For time-course determination, IRE1α* proteins (16 nM) were incubated with or without 10 μM 1NM-PP1 for 20 min prior to addition of 20 nM radio-labeled RNAs. Reactions were quenched by addition of 4 M urea at different time points and then were subjected to urea 6% PAGE analysis. […] The cleavage buffer and general manipulation are the same as described (Wang et al., 2012). cDNA for rat rhodopsin was purchased from Invitrogen and amplified by PCR using primers: 5′-[…]-3′ (forward) (SEQ ID NO:23) and 5′-[…]-3′ (reverse) (SEQ ID NO:24). RNA was in vitro transcribed, cleaved by IRE1α*, and the cleavage sites mapped as described (Wang et al., 2012).

dP-IRE1α* = target: T3, dP-IRE1α* (Homo sapiens, UniProt O75460); assay: XBP1 RNA minisubstrate RNase assay with dephosphorylated IRE1α*; type: biochemical; conditions: of the levels of IRE1α*; increasing APY29
T3 construct: human IRE1α (residues 469-977, IRE1α*); made in house; host or cells: SF9 insect cells, then λ-phosphatase (NEB) treatment
T3 sequence (O75460 469-977): as the sequence (O75460 469-977) above
From the text: Reactions were quenched by addition of 4 M urea at different time points and then were subjected to urea 6% PAGE analysis.

yeast and murine IRE1α = conditions: cited from earlier work
IRE1α* [10] = target: T1, IRE1α*; assay: IRE1α* kinase assay (96-well dot blot, 32γ-ATP, STK peptide substrate 2); type: biochemical
Protocol: FIGS. 16A-16C. Divergent modulation of IRE1α RNase activity using distinct classes of kinase inhibitors. (FIG. 16A) KIRA6 inhibition of IRE1α* kinase activity. IC50 values determined by fitting percent kinase activity (n=3); Urea PAGE of competition cleavage by IRE1α* of XBP1 RNA mini-substrate (FIG. 16B) and α^32P-labeled Ins2 RNA (FIG. 16C), under indicated [KIRA6]; IC50s determined by fitting in-gel fluorescence intensities (XBP1) and phosphorimager (Ins2).
KIRAs are tested for ability to inhibit IRE1α* kinase and RNase activities in vitro. The XBP1 minisubstrate assay shown in FIGS. 1B-1C, is amenable to 96- or 384-well format, and is used to determine RNase IC50s. In parallel, kinase IC50s for all KIRAs are determined in a 96-well dot blot assay with 32γ-ATP and STK peptide substrate 2 as substrates. Time-dependence of inhibition is determined for all electrophile-containing KIRAs. RNase and kinase assays have been used to profile the KIRAs in FIG. 13, showing a strong correlation between kinase and RNase IC50s. […] Thus, the structure-based design strategy uses these two kinases as counter targets (described below).

[11] = varying concentration of the tested inhibitor

SMILES: CC(C)(C)n1nc(Cc2cccc3ccccc23)c2c(N)ncnc21 [1NM-PP1]
- RNase activity of kinase-inactive IRE1α mutants [1]: able to rescue the RNase activity of IRE1α mutants that lack kinase activity

SMILES: CNc1nccn2c(C(C)(C)C)nc(-c3ccc(NC(=O)Nc4cccc(C(F)(F)F)c4)c4ccccc34)c12 [(NMe)KIRA6, 1-(4-(8-methylamino-3-tert-butylimidazo[1,5-a]pyrazin-1-yl)naphthalen-1-yl)-3-(3-(trifluoromethyl)phenyl)urea]
- endogenous IRE1α auto-phosphorylation in INS-1 cells (endogenous IRE1α [2]; by Tg, compound at 10 μM): inhibits neither output
- XBP1 mRNA splicing in INS-1 cells (endogenous IRE1α [3]; by Tm, compound at 10 μM): inhibits neither output

SMILES: CC(C)c1nc(-c2ccc(NC(=O)Nc3cccc(C(F)(F)F)c3)c3ccccc23)c2c(N)nccn12 [KIRA3, 1-(4-(8-amino-3-isopropylimidazo[1,5-a]pyrazin-1-yl)naphthalen-1-yl)-3-(3-(trifluoromethyl)phenyl)urea]
- endogenous IRE1α auto-phosphorylation in INS-1 cells (endogenous IRE1α [2]; ER stress (Tg)): abrogates IRE1α autophosphorylation
- off-target inhibition in kinase panel [4]: the only off-target inhibition observed is for the tyrosine kinases Src and Abl

SMILES: CC(C)c1nc(-c2ccc(NC(=O)Nc3cccc(C(F)(F)F)c3)cc2)c2c(N)nccn12 [KIRA2, 1-(4-(8-amino-3-isopropylimidazo[1,5-a]pyrazin-1-yl)phenyl)-3-(3-(trifluoromethyl)phenyl)urea]
- IRE1α* RNase activity (XBP1 RNA cleavage), effect in words (IRE1α* [5]): significant increase in overall potency

SMILES: c1cc(Nc2cc(C3CC3)[nH]n2)nc(Nc2ccc3nc[nH]c3c2)n1 [APY29]
- toxicity in cells [6]: pleiotropic toxicity, including proliferative blocks at low micromolar concentrations
- accessibility of Cys572 (IRE1α* [7]): no detectable difference
- accessibility of Cys645 to alkylating agents (IRE1α* [7]): highly shielded from alkylating agents
- accessibility of Cys715 (rate of alkylation) (IRE1α* [7]): slowing the rate of alkylation
- IRE1α* oligomerization (oligomer/monomer ratio) (IRE1α* [8]): further enhances
- IC50 (IRE1α* [9]): 280 nM
- RNase activity of IRE1α* (P830L) (IRE1α* (P830L)): partially rescue RNase activity
- autophosphorylation by IRE1α* (P830L) (IRE1α* (P830L)): suppresses residual autophosphorylation
- oligomeric state of IRE1α* (P830L) (IRE1α* (P830L)): increases IRE1α* (P830L)'s oligomeric state
- dP-IRE1α* cleavage of XBP1 mini-substrate restored, plateau (dP-IRE1α*): ~60%
- IRE1α* RNase activity (XBP1 RNA cleavage), effect in words (IRE1α* [5]): acting as an activator
- RNase competition, IRE1α* under fixed KIRA3 (GP146) (IRE1α* [5]; [11]): progressively reverse IRE1α* RNase inhibition caused by a fixed concentration of KIRA3
- RNase competition, IRE1α* under fixed STF-083010 (IRE1α* [5]; [11]): cannot rescue direct inhibition caused by the covalent RNase modifier STF-083010
- RNase of yeast and murine IRE1α (yeast and murine IRE1α): directly activate the RNase of yeast and murine IRE1α

SMILES: CNc1nccn2c(C(C)C)nc(-c3ccc(NC(=O)Nc4cccc(C(F)(F)F)c4)c4ccccc34)c12 [GP146(NMe), 1-(4-(3-isopropyl-8-(methylamino)imidazo[1,5-a]pyrazin-1-yl)naphthalen-1-yl)-3-(3-(trifluoromethyl)phenyl)urea]
- XBP1 mRNA splicing (IRE1α RNase activity) in INS-1 cells (endogenous IRE1α [3]; thapsigargin (Tg) 6 nM): does not block the splicing of XBP1 mRNA
- IRE1α* RNase activity (XBP1 RNA cleavage), effect in words (IRE1α* [5]): markedly diminished ability to inhibit the RNase activity of IRE1α compared to GP146

SMILES: CC(C)c1nc(-c2ccc(NC(=O)c3cccc(C(F)(F)F)c3)c3ccccc23)c2c(N)nccn12 [GP146(Am), N-(4-(8-amino-3-isopropylimidazo[1,5-a]pyrazin-1-yl)naphthalen-1-yl)-3-(trifluoromethyl)benzamide]
- IRE1α* RNase activity (XBP1 RNA cleavage), effect in words (IRE1α* [5]): markedly diminished ability to inhibit the RNase activity of IRE1α compared to GP146

SMILES: CC(C)(C)c1nc(-c2ccc(NC(=O)Nc3cccc(F)c3)c3ccccc23)c2c(N)nccn12 [KIRA7]
- IC50 (IRE1α* [10]): 35 nM
- IC50 (IRE1α* [5]; IRE1α*): < 30 nM
